Calls of active or inactive are those of the source. The rule behind the calls is not given here.
Experiments:
[1] = system: Tribolium confusum; experiment: Insecticidal activity against Tribolium confusum (confused flour beetle) infected wheat assessed as increase in mortality at 0.125 to 0.75 ppm applied as spray after 48 hr in presence of diatomaceous earth; format: functional, organism-based
[2] = system: Sitophilus oryzae; experiment: Insecticidal activity against Sitophilus oryzae (rice weevil) infected wheat assessed as increase in mortality at 0.125 ppm applied as spray after 7 days in absence of diatomaceous earth; format: functional, organism-based
[3] = system: Sitophilus oryzae; experiment: Insecticidal activity against Sitophilus oryzae (rice weevil) infected wheat assessed as increase in mortality at 0.125 to 0.25 ppm applied as spray after 48 hr in presence of diatomaceous earth; format: functional, organism-based
[4] = system: Tribolium confusum; experiment: Insecticidal activity against Tribolium confusum (confused flour beetle) infected wheat assessed as increase in mortality at 0.25 to 0.75 ppm applied as spray after 14 days in absence of diatomaceous earth; format: functional
[5] = system: Tribolium confusum; experiment: Insecticidal activity against Tribolium confusum (confused flour beetle) infected wheat assessed as increase in mortality at 0.125 to 0.75 ppm applied as spray after 7 days in absence of diatomaceous earth; format: functional, organism-based
[6] = system: Sitophilus oryzae; experiment: Insecticidal activity against Sitophilus oryzae (rice weevil) infected wheat assessed as mortality at 0.75 ppm applied as spray after 48 hr in absence of diatomaceous earth; format: functional
[7] = system: Tribolium confusum; experiment: Insecticidal activity against Tribolium confusum (confused flour beetle) infected wheat assessed as increase in mortality at 0.125 to 0.75 ppm applied as spray after 24 hr in absence of diatomaceous earth; format: functional, organism-based
[8] = system: Sitophilus oryzae; experiment: Insecticidal activity against Sitophilus oryzae (rice weevil) infected wheat assessed as mortality at 0.75 ppm applied as spray after 7 days in absence of diatomaceous earth; format: functional; conditions: 168 h
[9] = system: Sitophilus oryzae; experiment: Insecticidal activity against Sitophilus oryzae (rice weevil) infected wheat assessed as increase in mortality at 0.75 ppm applied as spray after 14 days in absence of diatomaceous earth; format: functional, organism-based
[10] = system: Sitophilus oryzae; experiment: Insecticidal activity against Sitophilus oryzae (rice weevil) infected wheat assessed as increase in mortality at 0.75 ppm applied as spray after 14 days in presence of diatomaceous earth; format: functional, organism-based
[11] = system: Tribolium confusum; experiment: Insecticidal activity against Tribolium confusum (confused flour beetle) infected wheat assessed as increase in mortality at 0.125 ppm applied as spray after 14 days in absence of diatomaceous earth; format: functional; conditions: 336 h
[12] = system: Sitophilus oryzae; experiment: Insecticidal activity against Sitophilus oryzae (rice weevil) infected wheat assessed as decrease in progeny productionc at 0.125 to 0.75 ppm applied as spray after 60 days in presence of diatomaceous earth; format: functional, organism-based
[13] = system: Sitophilus oryzae; experiment: Insecticidal activity against Sitophilus oryzae (rice weevil) infected wheat assessed as decrease in progeny productionc at 0.125 to 0.75 ppm applied as spray after 60 days in absence of diatomaceous earth; format: functional, organism-based
[14] = system: Sitophilus oryzae; experiment: Insecticidal activity against Sitophilus oryzae (rice weevil) infected wheat assessed as mortality at 0.75 ppm applied as spray after 48 hr in presence of diatomaceous earth; format: functional
[15] = system: Sitophilus oryzae; experiment: Insecticidal activity against Sitophilus oryzae (rice weevil) infected wheat assessed as increase in mortality at 0.125 to 0.25 ppm applied as spray after 14 days in presence of diatomaceous earth; format: functional, organism-based
[16] = system: Sitophilus oryzae; experiment: Insecticidal activity against Sitophilus oryzae (rice weevil) infected wheat assessed as mortality at 0.125 to 0.75 ppm applied as spray after 24 hr in absence of diatomaceous earth; format: functional

## CC1(C)C(C=C(Cl)Cl)C1C(=O)OC(C#N)c1ccc(F)c(Oc2ccccc2)c1 (stereo unspecified) [CYFLUTHRIN]
[1]
  Activity: Active
[2]
  Activity: Active
[3]
  Activity: Active
[4]
  mortality: 100%
[5]
  Activity: Active
[6]
  mortality at 0.75 ppm: 79%
[7]
  Activity: Active
[8]
  mortality at 0.75 ppm: > 98%
[9]
  Activity: Active
[10]
  Activity: Active
[11]
  mortality at 0.125 ppm: > 91%
[12]
  Activity: Active
[13]
  Activity: inactive
[14]
  mortality at 0.75 ppm: 79%
[15]
  Activity: Active
[16]
  mortality: 6%

Reference: ChEMBL document CHEMBL3045639, “Evaluation of three diatomaceous earth and one natural pyrethrum formulations against pupae of Tribolium confusum DuVal (Coleoptera: Tenebrionidae) on wheat and flour” (2006)
